Test results published in patent US6355799B1, “Substituted benzene compounds, process for their preparation, and herbicidal and defoliant compositions containing them” (ISK Americas Incorporated, priority 1997, dated 2002).

Columns and labels:
Assay type in all cases: in vivo
[1] = test system: redroot pigweed (Amaranthus retroflexus, AMARE); experiment: Pre-emerge test, greenhouse herbicide activity screening; settings: pre-emerge, rated 14 days after application, 0 = no damage, 100 = complete death
Procedure, shortened: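 Herbicidal damage is scored 0 (none) to 100 (complete plant death) two weeks after a simulated field spray. Rates span 15–1000 g ai/ha, delivered in acetone at 187 l/ha. For post-emergence treatments, plants have 2–3 leaves and the spray carries 0.25% v/v non-ionic surfactant.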

[2] = test system: barnyardgrass (Echinochloa crus-galli, ECHCG); experiment: as above; settings: pre-emerge, rated 14 days after application, 0 = no damage, 100 = complete death
Procedure, shortened: (§1)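 Rating: 0–100 visual injury, 14 DAA. Application: acetone, 187 l/ha, 15–1000 g ai/ha, flat-fan track sprayer with nozzle 40–45 cm above soil or canopy. Post-emerge runs used 0.25% v/v surfactant on 2–3 leaf plants.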

[3] = test system: common ragweed (Ambrosia artemisizfolia L., AMBEL); experiment: as above; settings: pre-emerge, rated 14 days after application, 0 = no damage, 100 = complete death
Procedure, shortened: as §1

[4] = test system: green foxtail (Setaria viridis, SETVI); experiment: as above; settings: pre-emerge, rated 14 days after application, 0 = no damage, 100 = complete death
Procedure, shortened: as §1

[5] = test system: ivyleaf morningglory (Ipomoea hederacea, IPOHE); experiment: as above; settings: pre-emerge, rated 14 days after application, 0 = no damage, 100 = complete death
Procedure, shortened: as §1

[6] = test system: johnsongrass (Sorghum halepense, SORHA); experiment: as above; settings: pre-emerge, rated 14 days after application, 0 = no damage, 100 = complete death
Procedure, shortened: as §1

[7] = test system: lambsquarters (Chenopodium album, CHEAL); experiment: as above; settings: pre-emerge, rated 14 days after application, 0 = no damage, 100 = complete death
Procedure, shortened: as §1

[8] = test system: large crabgrass (Digitaria sanguinalis, DIGSA); experiment: as above; settings: pre-emerge, rated 14 days after application, 0 = no damage, 100 = complete death
Procedure, shortened: as §1

[9] = test system: sicklepod (Cassia obtusifolia, CASOB); experiment: as above; settings: pre-emerge, rated 14 days after application, 0 = no damage, 100 = complete death
Procedure, shortened: as §1

[10] = test system: velvetleaf (Abutilon theophrasti, ABUTH); experiment: as above; settings: pre-emerge, rated 14 days after application, 0 = no damage, 100 = complete death
Procedure, shortened: as §1

[11] = test system: field corn (Zea mays L., var. Dekalb 535, CORN); experiment: Pre-emerge test, crop safety; settings: pre-emerge, rated 14 days after application, 0 = no damage, 100 = complete death
Procedure, shortened: (§2)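 Visual ratings on a 0-100 scale (0 no damage, 100 all plants dead) were taken at 14 days after treatment. Rates of 15-1000 g ai/ha in acetone, 187 l/ha, were sprayed onto soil one day after planting (pre-emerge) or onto 2-3 leaf plants with 0.25% v/v surfactant (post-emerge).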

[12] = test system: upland rice (Oryza sp., var. Tebonnet, RICE); experiment: Pre-emerge test, crop safety; settings: pre-emerge, rated 14 days after application, 0 = no damage, 100 = complete death
Procedure, shortened: as §2

[13] = test system: barnyardgrass (Echinochloa crus-galli, ECHCG); experiment: Post-emerge test, greenhouse herbicide activity screening; settings: phytotoxicity rating 0-100 (0 no damage, 100 complete death), 14 days after application
Procedure, shortened: (§3)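 Each test used a mechanized track sprayer delivering 187 l/ha of acetone solution at 15–1000 g ai/ha. Post-emerge foliage at 2–3 leaves was treated with added 0.25% v/v non-ionic surfactant and bottom-watered only. Injury was assessed on day 14, where 100 means total kill.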

[14] = test system: green foxtail (Setaria viridis, SETVI); experiment: as above; settings: phytotoxicity rating 0-100 (0 no damage, 100 complete death), 14 days after application
Procedure, shortened: as §3

[15] = test system: ivyleaf morningglory (Ipomoea hederacea, IPOHE); experiment: as above; settings: phytotoxicity rating 0-100 (0 no damage, 100 complete death), 14 days after application
Procedure, shortened: as §3

[16] = test system: johnsongrass (Sorghum halepense, SORHA); experiment: as above; settings: phytotoxicity rating 0-100 (0 no damage, 100 complete death), 14 days after application
Procedure, shortened: as §3

[17] = test system: lambsquarters (Chenopodium album, CHEAL); experiment: as above; settings: phytotoxicity rating 0-100 (0 no damage, 100 complete death), 14 days after application
Procedure, shortened: as §3

[18] = test system: large crabgrass (Digitaria sanguinalis, DIGSA); experiment: as above; settings: phytotoxicity rating 0-100 (0 no damage, 100 complete death), 14 days after application
Procedure, shortened: as §3

[19] = test system: redroot pigweed (Amaranthus retroflexus, AMARE); experiment: as above; settings: phytotoxicity rating 0-100 (0 no damage, 100 complete death), 14 days after application
Procedure, shortened: as §3

[20] = test system: sicklepod (Cassia obtusifolia, CASOB); experiment: as above; settings: phytotoxicity rating 0-100 (0 no damage, 100 complete death), 14 days after application
Procedure, shortened: as §3

[21] = test system: velvetleaf (Abutilon theophrasti, ABUTH); experiment: as above; settings: phytotoxicity rating 0-100 (0 no damage, 100 complete death), 14 days after application
Procedure, shortened: as §3

[22] = test system: field corn (Zea mays L., var. Dekalb 535, CORN); experiment: Post-emerge test, crop safety; settings: phytotoxicity rating 0-100 (0 no damage, 100 complete death), 14 days after application
Procedure, shortened: (§4)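 Plants grown in 10 cm pots of sandy loam mix received acetone-dissolved compounds through a moving flat-fan nozzle. Doses ranged from 15 to 1000 g ai/ha. Pre-emerge pots were seeded one day earlier, post-emerge pots 8–21 days earlier. Fourteen days on, each pot was graded 0–100 for damage.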

[23] = test system: upland rice (Oryza sp., var. Tebonnet, RICE); experiment: Post-emerge test, crop safety; settings: phytotoxicity rating 0-100 (0 no damage, 100 complete death), 14 days after application
Procedure, shortened: as §4

`CCOC(=O)C(C)Nc1cc(OC(F)F)cc(F)c1-n1c(=O)cc(C(F)(F)F)n(C)c1=O` (stereo not shown) [Compound 1-53] was tested, and the “Pre-emerge Herbicidal Activity AMARE (phytotoxicity rating, scale 0-100)” value ([1]; 63 g ai/ha) was 100, the “Pre-emerge Herbicidal Activity AMARE (phytotoxicity rating, scale 0-100)” value ([1]; 250 g ai/ha) was 100 and the “Pre-emerge Herbicidal Activity ECHCG (phytotoxicity rating, scale 0-100)” value ([2]; 63 g ai/ha) was 0. For the same compound, the “Pre-emerge Herbicidal Activity ECHCG (phytotoxicity rating, scale 0-100)” value ([2]; 250 g ai/ha) was 80, the “Pre-emerge Herbicidal Activity AMBEL (phytotoxicity rating, scale 0-100)” value ([3]; 63 g ai/ha) was 50 and the “Pre-emerge Herbicidal Activity AMBEL (phytotoxicity rating, scale 0-100)” value ([3]; 250 g ai/ha) was 90. The “Pre-emerge Herbicidal Activity SETVI (phytotoxicity rating, scale 0-100)” value ([4]; 63 g ai/ha) was 50, the “Pre-emerge Herbicidal Activity SETVI (phytotoxicity rating, scale 0-100)” value ([4]; 250 g ai/ha) was 95 and the “Pre-emerge Herbicidal Activity IPOHE (phytotoxicity rating, scale 0-100)” value ([5]; 63 g ai/ha) was 50. The “Pre-emerge Herbicidal Activity IPOHE (phytotoxicity rating, scale 0-100)” value ([5]; 250 g ai/ha) was 95, the “Pre-emerge Herbicidal Activity SORHA (phytotoxicity rating, scale 0-100)” value ([6]; 63 g ai/ha) was 50 and the “Pre-emerge Herbicidal Activity SORHA (phytotoxicity rating, scale 0-100)” value ([6]; 250 g ai/ha) was 90. For the same compound, the “Pre-emerge Herbicidal Activity CHEAL (phytotoxicity rating, scale 0-100)” value ([7]; 63 g ai/ha) was 100, the “Pre-emerge Herbicidal Activity CHEAL (phytotoxicity rating, scale 0-100)” value ([7]; 250 g ai/ha) was 100 and the “Pre-emerge Herbicidal Activity DIGSA (phytotoxicity rating, scale 0-100)” value ([8]; 63 g ai/ha) was 40. For the same compound, the “Pre-emerge Herbicidal Activity DIGSA (phytotoxicity rating, scale 0-100)” value ([8]; 250 g ai/ha) was 90, the “Pre-emerge Herbicidal Activity CASOB (phytotoxicity rating, scale 0-100)” value ([9]; 63 g ai/ha) was 0 and the “Pre-emerge Herbicidal Activity CASOB (phytotoxicity rating, scale 0-100)” value ([9]; 250 g ai/ha) was 50. For the same compound, the “Pre-emerge Herbicidal Activity ABUTH (phytotoxicity rating, scale 0-100)” value ([10]; 63 g ai/ha) was 100, the “Pre-emerge Herbicidal Activity ABUTH (phytotoxicity rating, scale 0-100)” value ([10]; 250 g ai/ha) was 100 and the “Pre-emerge crop damage CORN (phytotoxicity rating, scale 0-100)” value ([11]; 63 g ai/ha) was 95. The “Pre-emerge crop damage CORN (phytotoxicity rating, scale 0-100)” value ([11]; 250 g ai/ha) was 100, the “Pre-emerge crop damage RICE (phytotoxicity rating, scale 0-100)” value ([12]; 63 g ai/ha) was 50 and the “Pre-emerge crop damage RICE (phytotoxicity rating, scale 0-100)” value ([12]; 250 g ai/ha) was 90. For the same compound, the “Post-emerge Herbicidal Activity ECHCG” value ([13]; 63 g ai/ha) was 0, the “Post-emerge Herbicidal Activity ECHCG” value ([13]; 250 g ai/ha) was 50 and the “Post-emerge Herbicidal Activity SETVI” value ([14]; 63 g ai/ha) was 0. The “Post-emerge Herbicidal Activity SETVI” value ([14]; 250 g ai/ha) was 80, the “Post-emerge Herbicidal Activity IPOHE” value ([15]; 63 g ai/ha) was 95 and the “Post-emerge Herbicidal Activity IPOHE” value ([15]; 250 g ai/ha) was 100. For the same compound, the “Post-emerge Herbicidal Activity SORHA” value ([16]; 63 g ai/ha) was 0, the “Post-emerge Herbicidal Activity SORHA” value ([16]; 250 g ai/ha) was 40 and the “Post-emerge Herbicidal Activity CHEAL” value ([17]; 63 g ai/ha) was 50. The “Post-emerge Herbicidal Activity CHEAL” value ([17]; 250 g ai/ha) was 100, the “Post-emerge Herbicidal Activity DIGSA” value ([18]; 63 g ai/ha) was 0 and the “Post-emerge Herbicidal Activity DIGSA” value ([18]; 250 g ai/ha) was 50. The “Post-emerge Herbicidal Activity AMARE” value ([19]; 63 g ai/ha) was 80, the “Post-emerge Herbicidal Activity AMARE” value ([19]; 250 g ai/ha) was 100 and the “Post-emerge Herbicidal Activity CASOB” value ([20]; 63 g ai/ha) was 60. For the same compound, the “Post-emerge Herbicidal Activity CASOB” value ([20]; 250 g ai/ha) was 95, the “Post-emerge Herbicidal Activity ABUTH” value ([21]; 63 g ai/ha) was 100 and the “Post-emerge Herbicidal Activity ABUTH” value ([21]; 250 g ai/ha) was 100. For the same compound, the “Post-emerge Herbicidal Activity CORN (crop damage)” value ([22]; 63 g ai/ha) was 0, the “Post-emerge Herbicidal Activity CORN (crop damage)” value ([22]; 250 g ai/ha) was 30 and the “Post-emerge Herbicidal Activity RICE (crop damage)” value ([23]; 63 g ai/ha) was 10. The “Post-emerge Herbicidal Activity RICE (crop damage)” value ([23]; 250 g ai/ha) was 60.
